Experimental data: patent US20120016009A1, “Optimized Methods For Delivery Of DSRNA Targeting The PCSK9 Gene” (priority 2008, published 2012)
In the oligonucleotide strings, read from the 5' end, every base follows the letter of its sugar. An asterisk marks phosphorothioate; unmarked linkages are phosphodiester. Other units and linkages are bracketed, terminal groups are in braces. A string of capitals states the bases alone. [Ab] = 3'-terminal abasic nucleotide; d = 2'-deoxy (DNA); m = 2'-O-methyl; r = 2'-OH (RNA); {P} = phosphate; f = 2'-fluoro

Tested on: PCSK9 mRNA
Assay: In vitro screening of modified dsRNAs targeted to PCSK9 (Table 2b; cell type not given)
Assay type: cell-based
Conditions: 30 nM siRNA
Procedure: For transfection with siRNA, HuH7, HepG2, or HeLa cells were seeded at a density of 2.0×10^4 cells/well in 96-well plates and transfected directly. Transfection of siRNA (30 nM for single dose screen) was carried out with lipofectamine 2000 (Invitrogen GmbH, Karlsruhe, Germany, cat. No. 11668-019) as described by the manufacturer.
24 hours after transfection HuH7 and HepG2 cells were lysed and PCSK9 mRNA levels were quantified with the Quantigene Explore Kit (Genosprectra, Dumbarton Circle Fremont, USA, cat. No. QG-000-02) according to the protocol. PCSK9 mRNA levels were normalized to GAP-DH mRNA. For each siRNA eight individual datapoints were collected. siRNA duplexes unrelated to PCSK9 gene were used as control. The activity of a given PCSK9 specific siRNA duplex was expressed as percent PCSK9 mRNA concentration in treated cells relative to PCSK9 mRNA concentration in cells treated with the control siRNA duplex.
Tables 1b and 2b (and FIG. 6A) summarize the results and provide examples of in vitro screens in different cell lines at different doses. Silencing of PCSK9 transcript was expressed as percentage of remaining transcript at a given dose.

| Substance | Remaining mRNA in % of controls at siRNA conc. of 30 nM [%] |
| --- | --- |
| AD-12049: modified dsRNA, SEQ ID NO:1333/1334 (chain 1 rGmCmCmUrGrGrArGmUmUmUrAmUmUmCrGrGrArArArArG; chain 2 rCrUrUrUrUrCrCrGrArArUrArArArCrUrCrCrArGrGrC*mC*mU) | 34 |
| AD-12050: modified dsRNA, SEQ ID NO:1335/1336 (chain 1 rGmCmCmUrGrGrArGmUmUmUrAmUmUmCrGrGrArAdTdT[Ab]; chain 2 rUrUrCrCrGrArArUrArArArCrUrCrCrArGrGrCdTdT[Ab]) | 16 |
| AD-12051: modified dsRNA, SEQ ID NO:1337/1338 (chain 1 rGmCmCmUrGrGrArGmUmUmUrAmUmUmCrGrGrArArAdTdT[Ab]; chain 2 rUrUrUrCrCrGrArAmUrArArArCrUrCrCrArGrGrCdTdT[Ab]) | 31 |
| AD-12052: modified dsRNA, SEQ ID NO:1339/1340 (chain 1 rGmCmCmUrGrGrArGmUmUmUrAmUmUmCrGrGrArArArAdTdT[Ab]; chain 2 rUrUrUrUrCrCrGrArArUrArArArCrUrCrCrArGrGrCdTdT[Ab]) | 81 |
| AD-12053: modified dsRNA, SEQ ID NO:1341/1342 (chain 1 rGmCmCmUrGrGrArGmUmUmUrAmUmUmCrGrGrArArArArGdTdT[Ab]; chain 2 rCrUrUrUrUrCrCrGrArArUrArArArCrUrCrCrArGrGrCdTdT[Ab]) | 46 |
| AD-12054: modified dsRNA, SEQ ID NO:1343/1344 (chain 1 rGrCrCrUrGrGrArGrUrUrUrArUrUrCrGrGrArAdT*dT; chain 2 rUrUrCrCrGrArArUrArArArCrUrCrCrArGrGrC*mC*mU) | 8 |
| AD-12055: modified dsRNA, SEQ ID NO:1345/1346 (chain 1 rGmCmCmUrGrGrArGmUmUmUrAmUmUmCrGrGrArAdT*dT; chain 2 rUrUrCrCrGrArArUrArArArCrUrCrCrArGrGrC*mC*mU) | 13 |
| AD-12056: modified dsRNA, SEQ ID NO:1347/1348 (chain 1 rGmCrCmUrGmGrAmGrUmUrUmArUmUrCmGrGmArA; chain 2 rUrUrCrCrGrArArUrArArArCrUrCrCrArGrGrCdTdT[Ab]) | 11 |
| AD-12057: modified dsRNA, SEQ ID NO:1349/1350 (chain 1 rGmCrCmUrGmGrAmGrUmUrUmArUmUrCmGrGmArA; chain 2 rUrUrCrCrGrArArUrArArArCrUrCrCrArGrGrCdT*dT) | 8 |
| AD-12058: modified dsRNA, SEQ ID NO:1351/1352 (chain 1 rGmCrCmUrGmGrAmGrUmUrUmArUmUrCmGrGmArA; chain 2 rUrUrCrCrGrArAmUrArArArCrUrCmCrArGrGrCdT*dT) | 9 |
| AD-12059: modified dsRNA, SEQ ID NO:1353/1354 (chain 1 rGmCrCmUrGmGrAmGrUmUrUmArUmUrCmGrGmArA; chain 2 mUrUmCrCrGrArAmUrArArArCrUmCmCrArGrGrCdT*dT) | 23 |
| AD-12060: modified dsRNA, SEQ ID NO:1355/1356 (chain 1 rGmCrCmUrGmGrAmGrUmUrUmArUmUrCmGrGmArA; chain 2 rUrUrCrCrGmAmArUrAmAmArCrUrCrCrAmGmGmC) | 10 |
| AD-12061: modified dsRNA, SEQ ID NO:1357/1358 (chain 1 GCCUGGNAGUUUAUUCGGAATT; chain 2 rUrUrCrCrGmAmArUrAmAmArCrUrCrCrAmGmGmCdT*dT; chain 1: chemistry not given here; sense strand contains an undefined nucleotide n) | 7 |
| AD-12062: modified dsRNA, SEQ ID NO:1359/1360 (chain 1 rGmCrCmUrGmGrAmGrUmUrUmArUmUrCmGrGmArAdTdT[Ab]; chain 2 rUrUrCrCrGmAmArUrAmAmArCrUrCrCrAmGmGmCdTdT[Ab]) | 10 |
| AD-12063: modified dsRNA, SEQ ID NO:1361/1362 (chain 1 rGmCrCmUrGmGrAmGrUmUrUmArUmUrCmGrGmArA; chain 2 rUrUrCrCrGmAmArUrAmAmArCrUrCrCrAmGmGmC*mC*mU) | 19 |
| AD-12064: modified dsRNA, SEQ ID NO:1363/1364 (chain 1 GCCUGGNAGUUUAUUCGGAATT; chain 2 rUrUrCrCrGrArAmUrArArArCrUrCmCrArGrGrCdT*dT; chain 1: chemistry not given here; sense strand contains an undefined nucleotide n) | 15 |

| Substance | Remaining mRNA in % of controls at siRNA conc. of 30 nM [%] |
| --- | --- |
| AD-12065: modified dsRNA, SEQ ID NO:1365/1366 (chain 1 rGmCrCmUrGmGrAmGrUmUrUmArUmUrCmGrGmArAdTdT[Ab]; chain 2 rUrUrCrCrGrArAmUrArArArCrUrCmCrArGrGrCdTdT[Ab]) | 16 |
| AD-12066: modified dsRNA, SEQ ID NO:1367/1368 (chain 1 rGmCrCmUrGmGrAmGrUmUrUmArUmUrCmGrGmArA; chain 2 rUrUrCrCrGrArAmUrArArArCrUrCmCrArGrGrC*mC*mU) | 20 |
| AD-12067: modified dsRNA, SEQ ID NO:1369/1370 (chain 1 GCCUGGNAGUUUAUUCGGAATT; chain 2 rUrUrCrCrGrArArUrArArArCrUrCrCrArGrGrCdT*dT; chain 1: chemistry not given here) | 17 |
| AD-12068: modified dsRNA, SEQ ID NO:1371/1372 (chain 1 rGmCrCmUrGmGrAmGrUmUrUmArUmUrCmGrGmArAdTdT[Ab]; chain 2 rUrUrCrCrGrArArUrArArArCrUrCrCrArGrGrCdTdT[Ab]) | 18 |
| AD-12069: modified dsRNA, SEQ ID NO:1373/1374 (chain 1 rGmCrCmUrGmGrAmGrUmUrUmArUmUrCmGrGmArA; chain 2 rUrUrCrCrGrArArUrArArArCrUrCrCrArGrGrC*mC*mU) | 13 |
| AD-12338: modified dsRNA, SEQ ID NO:1375/1376 (chain 1 fGmCfCmUfGmGfAmGfUmUfUmAfUmUfCmGfGmAfA; chain 2 {P}-mUfUmCfCmGfAmAfUmAfAmAfCmUfCmCfAmGfGmC) | 15 |
| AD-12339: modified dsRNA, SEQ ID NO:1377/1378 (chain 1 rGmCrCmUrGmGrAmGrUmUrUmArUmUrCmGrGmArA; chain 2 {P}-mUfUmCfCmGfAmAfUmAfAmAfCmUfCmCfAmGfGmC) | 14 |
| AD-12340: modified dsRNA, SEQ ID NO:1379/1380 (chain 1 rGmCmCmUrGrGrArGmUmUmUrAmUmUmCrGrGrArA; chain 2 {P}-mUfUmCfCmGfAmAfUmAfAmAfCmUfCmCfAmGfGmC) | 19 |
| AD-12341: modified dsRNA, SEQ ID NO:1381/1382 (chain 1 fGmCfCmUfGmGfAmGfUmUfUmAfUmUfCmGfGmAfAdT*dT; chain 2 {P}-mUfUmCfCmGfAmAfUmAfAmAfCmUfCmCfAmGfGmCdT*dT) | 12 |
| AD-12342: modified dsRNA, SEQ ID NO:1383/1384 (chain 1 fGmCfCmUfGmGfAmGfUmUfUmAfUmUfCmGfGmAfAdT*dT; chain 2 rUrUrCrCrGrArAmUrArArArCrUrCmCrArGrGrCdT*dT) | 13 |
| AD-12343: modified dsRNA, SEQ ID NO:1385/1386 (chain 1 fGmCfCmUfGmGfAmGfUmUfUmAfUmUfCmGfGmAfAdT*dT; chain 2 mUrUmCrCrGrArAmUrArArArCrUmCmCrArGrGrCdT*dT) | 24 |
| AD-12344: modified dsRNA, SEQ ID NO:1387/1388 (chain 1 fGmCfCmUfGmGfAmGfUmUfUmAfUmUfCmGfGmAfAdT*dT; chain 2 rUrUrCrCrGrArArUrArArArCrUrCrCrArGrGrCdT*dT) | 9 |
| AD-12345: modified dsRNA, SEQ ID NO:1389/1390 (chain 1 fGmCfCmUfGmGfAmGfUmUfUmAfUmUfCmGfGmAfAdT*dT; chain 2 rUrUrCrCrGrArArUrArArArCrUrCrCrArGrGrC*mC*mU) | 12 |
| AD-12346: modified dsRNA, SEQ ID NO:1391/1392 (chain 1 fGmCfCmUfGmGfAmGfUmUfUmAfUmUfCmGfGmAfAdT*dT; chain 2 rUrUrCrCrGmAmArUrAmAmArCrUrCrCrAmGmGmC*mC*mU) | 13 |
| AD-12347: modified dsRNA, SEQ ID NO:1393/1394 (chain 1 rGrCrCrUrGrGrArGrUrUrUrArUrUrCrGrGrArAdT*dT; chain 2 {P}-mUfUmCfCmGfAmAfUmAfAmAfCmUfCmCfAmGfGmCdT*dT) | 11 |
